Tests used:
Assay in all cases: KinaseProfiler off-target kinase profiling
Type in all cases: biochemical
Conditions in all cases: 10 μM, ATP near Km
MEK1 = MEK1 (Homo sapiens (Human), UniProt Q02750)
Method: (§1) Representative compounds (Examples 12, 32, 26 and 2) of the invention were tested for off-target kinase activity at a concentration of 10 μM by Millipore, Inc. in their KinaseProfiler™ service against all the kinases available in their full kinase panel. Compounds were run in duplicate at a concentration of ATP near the Km for each individual kinase according to Millipore's specifications. The results are shown in Table B. Data are reported as percent of control (POC) and are the average of the two replicates.

Flt4 = Flt4 (Homo sapiens (Human), UniProt P35916)
Method: as §1

Bmx = Bmx (Homo sapiens (Human), UniProt P51813)
Method: as §1

HIPK2 = HIPK2 (Homo sapiens (Human), UniProt Q9H2X6)
Method: as §1

WNK2 = WNK2 (Homo sapiens (Human), UniProt Q9Y3S1)
Method: as §1

AKT2 = AKT2 (Homo sapiens (Human), UniProt P31751)
Method: as §1

Yes = Yes (Homo sapiens (Human), UniProt P07947)
Method: as §1

EphA5 = EphA5 (Homo sapiens (Human), UniProt P54756)
Method: as §1

MKK7beta = MKK7beta (Homo sapiens (Human), UniProt O14733)
Method: as §1

p70S6K = p70S6K (Homo sapiens (Human), UniProt P23443)
Method: as §1

MKK4_m = MKK4_m (Mus musculus (Mouse), UniProt P47809)
Method: as §1

MAPKAP-K3 = MAPKAP-K3 (Homo sapiens (Human), UniProt Q16644)
Method: as §1

CDK2/cyclinA = CDK2/cyclinA (Homo sapiens (Human), UniProt P24941)
Method: as §1

TLK2 = TLK2 (Homo sapiens (Human), UniProt Q86UE8)
Method: as §1

MAP4K2 = MAP4K2 (Homo sapiens (Human), UniProt Q12851)
Method: as §1

ROCK-I = ROCK-I (Homo sapiens (Human), UniProt Q13464)
Method: as §1

mTOR/FKBP12 = mTOR/FKBP12 (Homo sapiens (Human), UniProt P42345)
Method: as §1

Pim-3 = Pim-3 (Homo sapiens (Human), UniProt Q86V86)
Method: as §1

RIPK2 = RIPK2 (Homo sapiens (Human), UniProt O43353)
Method: as §1

PTK5 = PTK5 (Homo sapiens (Human), UniProt P42685)
Method: as §1

p38gamma = p38gamma (Homo sapiens (Human), UniProt P53778)
Method: as §1

EGFR = EGFR (Homo sapiens (Human), UniProt P00533)
Method: as §1

Met = Met (Homo sapiens (Human), UniProt P08581)
Method: as §1

eEF-2K = eEF-2K (Homo sapiens (Human), UniProt O00418)
Method: as §1

IRR = IRR (Homo sapiens (Human), UniProt P14616)
Method: as §1

Flt1 = Flt1 (Homo sapiens (Human), UniProt P17948)
Method: as §1

CK1delta = CK1delta (Homo sapiens (Human), UniProt P48730)
Method: as §1

PAK6 = PAK6 (Homo sapiens (Human), UniProt Q9NQU5)
Method: as §1

Plk3 = Plk3 (Homo sapiens (Human), UniProt Q9H4B4)
Method: as §1

NEK11 = NEK11 (Homo sapiens (Human), UniProt Q8NG66)
Method: as §1

MST1 = MST1 (Homo sapiens (Human), UniProt Q13043)
Method: as §1

CLK3 = CLK3 (Homo sapiens (Human), UniProt P49761)
Method: as §1

CAMK1 = CAMK1 (Homo sapiens (Human), UniProt Q14012)
Method: as §1

p38beta = p38beta (Homo sapiens (Human), UniProt Q15759)
Method: as §1

FGFR3 = FGFR3 (Homo sapiens (Human), UniProt P22607)
Method: as §1

SRPK2 = SRPK2 (Homo sapiens (Human), UniProt P78362)
Method: as §1

PKCepsilon = PKCepsilon (Homo sapiens (Human), UniProt Q02156)
Method: as §1

CDK5/p35 = CDK5/p35 (Homo sapiens (Human), UniProt Q00535)
Method: as §1

FGFR1 = FGFR1 (Homo sapiens (Human), UniProt P11362)
Method: as §1

PAK6, sequence (Q9NQU5 whole entry): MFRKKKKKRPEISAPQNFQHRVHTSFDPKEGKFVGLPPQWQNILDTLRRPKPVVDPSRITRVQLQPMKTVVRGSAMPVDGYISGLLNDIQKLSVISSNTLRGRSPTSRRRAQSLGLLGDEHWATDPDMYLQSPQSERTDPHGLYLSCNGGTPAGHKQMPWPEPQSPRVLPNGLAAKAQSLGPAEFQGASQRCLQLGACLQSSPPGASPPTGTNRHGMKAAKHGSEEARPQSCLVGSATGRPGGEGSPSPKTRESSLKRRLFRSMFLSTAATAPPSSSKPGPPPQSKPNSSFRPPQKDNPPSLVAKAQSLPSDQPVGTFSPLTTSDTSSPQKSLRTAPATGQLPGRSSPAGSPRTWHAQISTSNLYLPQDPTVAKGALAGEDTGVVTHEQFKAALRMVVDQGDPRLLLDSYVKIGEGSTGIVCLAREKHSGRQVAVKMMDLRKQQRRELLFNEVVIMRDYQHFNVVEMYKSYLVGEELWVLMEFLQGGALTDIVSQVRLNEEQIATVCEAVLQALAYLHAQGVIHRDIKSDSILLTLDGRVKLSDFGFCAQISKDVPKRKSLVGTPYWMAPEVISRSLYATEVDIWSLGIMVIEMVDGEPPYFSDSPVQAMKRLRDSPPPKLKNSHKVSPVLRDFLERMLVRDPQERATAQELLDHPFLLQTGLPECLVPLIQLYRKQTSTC
HIPK2, sequence (Q9H2X6 whole entry): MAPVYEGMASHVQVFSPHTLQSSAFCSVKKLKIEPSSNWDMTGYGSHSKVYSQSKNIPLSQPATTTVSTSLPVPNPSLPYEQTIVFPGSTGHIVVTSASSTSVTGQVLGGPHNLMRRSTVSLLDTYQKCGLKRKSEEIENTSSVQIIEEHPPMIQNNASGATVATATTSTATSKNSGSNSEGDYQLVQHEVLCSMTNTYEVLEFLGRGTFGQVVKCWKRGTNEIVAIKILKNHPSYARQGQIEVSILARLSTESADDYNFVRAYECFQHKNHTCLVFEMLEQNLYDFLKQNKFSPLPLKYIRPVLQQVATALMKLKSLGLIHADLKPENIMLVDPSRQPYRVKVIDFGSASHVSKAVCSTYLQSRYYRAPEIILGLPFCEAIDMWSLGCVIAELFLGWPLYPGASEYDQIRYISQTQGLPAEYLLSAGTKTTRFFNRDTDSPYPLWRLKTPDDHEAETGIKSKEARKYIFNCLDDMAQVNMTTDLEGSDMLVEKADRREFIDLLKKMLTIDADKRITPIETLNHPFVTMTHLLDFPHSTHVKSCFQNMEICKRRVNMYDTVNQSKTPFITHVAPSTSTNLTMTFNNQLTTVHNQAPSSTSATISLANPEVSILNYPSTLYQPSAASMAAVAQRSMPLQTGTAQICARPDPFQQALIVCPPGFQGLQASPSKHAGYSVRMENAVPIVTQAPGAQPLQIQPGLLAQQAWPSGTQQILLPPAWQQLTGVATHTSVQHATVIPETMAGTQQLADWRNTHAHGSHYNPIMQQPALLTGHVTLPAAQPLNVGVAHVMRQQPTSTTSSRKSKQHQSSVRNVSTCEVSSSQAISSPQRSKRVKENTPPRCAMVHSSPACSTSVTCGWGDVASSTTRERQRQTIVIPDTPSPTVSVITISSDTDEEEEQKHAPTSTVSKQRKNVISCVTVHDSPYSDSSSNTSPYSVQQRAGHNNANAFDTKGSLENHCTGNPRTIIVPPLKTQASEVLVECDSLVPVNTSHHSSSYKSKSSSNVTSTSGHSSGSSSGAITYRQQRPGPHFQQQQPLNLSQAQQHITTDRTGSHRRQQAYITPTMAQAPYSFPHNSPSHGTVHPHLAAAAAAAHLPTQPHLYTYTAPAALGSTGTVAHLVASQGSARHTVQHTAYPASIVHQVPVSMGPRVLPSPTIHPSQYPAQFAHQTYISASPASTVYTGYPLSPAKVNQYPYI
CDK5/p35, sequence (Q00535 whole entry): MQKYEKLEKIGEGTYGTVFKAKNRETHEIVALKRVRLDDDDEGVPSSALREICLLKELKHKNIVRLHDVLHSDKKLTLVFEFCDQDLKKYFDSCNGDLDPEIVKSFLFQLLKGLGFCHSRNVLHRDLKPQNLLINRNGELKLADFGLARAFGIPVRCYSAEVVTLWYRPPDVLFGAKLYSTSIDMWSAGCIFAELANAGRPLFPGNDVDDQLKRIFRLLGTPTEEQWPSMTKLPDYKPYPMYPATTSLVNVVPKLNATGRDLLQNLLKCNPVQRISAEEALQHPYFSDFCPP
CDK5/p35, sequence (Q15078 2-307 partner): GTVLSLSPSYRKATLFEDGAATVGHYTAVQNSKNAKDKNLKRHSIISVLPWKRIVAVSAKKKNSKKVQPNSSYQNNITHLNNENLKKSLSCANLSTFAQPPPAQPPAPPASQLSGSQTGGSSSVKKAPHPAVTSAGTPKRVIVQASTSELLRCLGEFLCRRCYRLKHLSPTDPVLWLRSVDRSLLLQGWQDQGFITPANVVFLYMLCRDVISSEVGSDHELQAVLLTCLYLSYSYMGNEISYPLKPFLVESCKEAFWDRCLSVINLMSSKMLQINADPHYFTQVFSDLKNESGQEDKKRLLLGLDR
MAPKAP-K3, sequence (Q16644 whole entry): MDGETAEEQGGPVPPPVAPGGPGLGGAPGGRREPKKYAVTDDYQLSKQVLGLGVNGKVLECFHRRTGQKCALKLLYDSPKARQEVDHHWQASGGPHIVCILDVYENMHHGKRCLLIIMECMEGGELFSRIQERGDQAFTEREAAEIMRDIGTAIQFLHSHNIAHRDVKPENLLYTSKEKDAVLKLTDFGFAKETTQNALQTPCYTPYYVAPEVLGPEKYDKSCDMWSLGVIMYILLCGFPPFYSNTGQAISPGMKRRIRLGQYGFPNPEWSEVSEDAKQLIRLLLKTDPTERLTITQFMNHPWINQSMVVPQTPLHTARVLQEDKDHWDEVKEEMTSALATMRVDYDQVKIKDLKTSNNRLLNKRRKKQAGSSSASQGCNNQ
MKK4_m, sequence (P47809 whole entry): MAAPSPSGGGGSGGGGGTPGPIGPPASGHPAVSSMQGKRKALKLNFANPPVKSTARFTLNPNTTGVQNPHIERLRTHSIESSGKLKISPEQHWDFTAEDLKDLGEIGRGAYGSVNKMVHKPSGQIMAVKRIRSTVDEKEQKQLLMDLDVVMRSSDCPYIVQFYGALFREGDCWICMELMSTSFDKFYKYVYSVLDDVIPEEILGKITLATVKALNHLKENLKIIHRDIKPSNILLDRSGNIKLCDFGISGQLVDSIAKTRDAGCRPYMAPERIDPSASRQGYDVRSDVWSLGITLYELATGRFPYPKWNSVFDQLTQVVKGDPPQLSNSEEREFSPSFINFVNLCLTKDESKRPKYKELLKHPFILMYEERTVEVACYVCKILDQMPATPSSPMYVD
Flt1, sequence (P17948 27-1338): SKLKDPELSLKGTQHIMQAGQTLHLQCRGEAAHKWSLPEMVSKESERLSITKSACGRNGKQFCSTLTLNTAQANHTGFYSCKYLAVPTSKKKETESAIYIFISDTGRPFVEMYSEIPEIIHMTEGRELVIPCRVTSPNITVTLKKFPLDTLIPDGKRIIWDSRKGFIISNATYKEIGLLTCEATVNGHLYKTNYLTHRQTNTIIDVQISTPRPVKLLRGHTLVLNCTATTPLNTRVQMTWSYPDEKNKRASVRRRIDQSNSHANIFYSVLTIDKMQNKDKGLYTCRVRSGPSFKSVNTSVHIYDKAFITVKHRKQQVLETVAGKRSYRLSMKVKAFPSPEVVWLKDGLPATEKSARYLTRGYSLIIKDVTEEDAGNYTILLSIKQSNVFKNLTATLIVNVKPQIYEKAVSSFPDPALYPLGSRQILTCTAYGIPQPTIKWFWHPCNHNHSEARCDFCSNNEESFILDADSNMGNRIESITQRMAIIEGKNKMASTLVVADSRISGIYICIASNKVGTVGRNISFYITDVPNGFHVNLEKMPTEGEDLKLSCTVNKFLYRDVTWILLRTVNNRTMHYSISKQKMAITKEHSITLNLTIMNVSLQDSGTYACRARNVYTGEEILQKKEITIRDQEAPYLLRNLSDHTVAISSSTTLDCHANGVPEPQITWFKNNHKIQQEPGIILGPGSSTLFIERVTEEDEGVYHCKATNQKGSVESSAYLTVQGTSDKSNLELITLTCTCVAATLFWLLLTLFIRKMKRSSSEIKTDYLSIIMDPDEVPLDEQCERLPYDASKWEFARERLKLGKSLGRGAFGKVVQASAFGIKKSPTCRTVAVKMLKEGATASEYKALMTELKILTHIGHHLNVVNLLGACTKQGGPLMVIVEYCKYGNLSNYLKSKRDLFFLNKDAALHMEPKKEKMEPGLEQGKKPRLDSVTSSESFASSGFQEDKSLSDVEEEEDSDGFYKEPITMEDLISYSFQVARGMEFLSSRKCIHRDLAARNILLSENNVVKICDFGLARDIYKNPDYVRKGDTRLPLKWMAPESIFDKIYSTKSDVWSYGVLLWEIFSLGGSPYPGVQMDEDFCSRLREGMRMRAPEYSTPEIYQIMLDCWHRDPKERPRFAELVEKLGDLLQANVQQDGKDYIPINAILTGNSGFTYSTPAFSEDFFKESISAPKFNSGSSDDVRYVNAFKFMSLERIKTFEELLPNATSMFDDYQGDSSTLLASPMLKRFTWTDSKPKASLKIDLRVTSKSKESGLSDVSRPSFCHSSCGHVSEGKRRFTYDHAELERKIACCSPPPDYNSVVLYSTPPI

## COCc1ccc2c(c1)C(NC(=O)Nc1c(C)c(-c3cnn(C)c3)nn1-c1ccccc1)COC2 (stereo not drawn) [Example 32, 1-(1′,4-dimethyl-1-phenyl-1H,1′H-[3,4′-bipyrazol]-5-yl)-3-(6-(methoxymethyl)isochroman-4-yl)urea]
MEK1
  Avg. POC: 102 POC
Flt4
  Avg. POC: 98 POC
Bmx
  Avg. POC: 106.5 POC
HIPK2
  Avg. POC: 99.5 POC
WNK2
  Avg. POC: 108.5 POC
AKT2
  Avg. POC: 121 POC
Yes
  Avg. POC: 114.5 POC
EphA5
  Avg. POC: 104.5 POC
MKK7beta
  Avg. POC: 138.5 POC
p70S6K
  Avg. POC: 110.5 POC
MKK4_m
  Avg. POC: 133 POC
MAPKAP-K3
  Avg. POC: 105 POC
CDK2/cyclinA
  Avg. POC: 118 POC
TLK2
  Avg. POC: 92 POC
MAP4K2
  Avg. POC: 119.5 POC
ROCK-I
  Avg. POC: 103 POC
mTOR/FKBP12
  Avg. POC: 113.5 POC
Pim-3
  Avg. POC: 112 POC
RIPK2
  Avg. POC: 99.5 POC
PTK5
  Avg. POC: 104 POC
p38gamma
  Avg. POC: 116.5 POC
EGFR
  Avg. POC: 102 POC
Met
  Avg. POC: 118.5 POC
eEF-2K
  Avg. POC: 115 POC
IRR
  Avg. POC: 109.5 POC
Flt1
  Avg. POC: 103 POC
CK1delta
  Avg. POC: 135.5 POC
PAK6
  Avg. POC: 116.5 POC
Plk3
  Avg. POC: 103.5 POC
NEK11
  Avg. POC: 108 POC
MST1
  Avg. POC: 105.5 POC
CLK3
  Avg. POC: 109 POC
CAMK1
  Avg. POC: 100 POC
p38beta
  Avg. POC: 119 POC
FGFR3
  Avg. POC: 107 POC
SRPK2
  Avg. POC: 106.5 POC
PKCepsilon
  Avg. POC: 97.5 POC
CDK5/p35
  Avg. POC: 112 POC
FGFR1
  Avg. POC: 104.5 POC
